Columns and labels:
[1] = tested on: CV-A16 190-D1; experiment: CPE protection, CV-A16 190-D1 strain; assay type: cell-based; details: for EC50: CV-A16 190-D1, RD cells
[2] = tested on: Vero cells; experiment: cytotoxicity test on Vero cells; assay type: cell-based, African green monkey; details: 3 days
Protocol: Human liver tumor cells (Huh7 cells) used in the experiment were purchased from Chinese National Infrastructure of Cell Line Resource. Human […] cells (RD cells) and African green monkey kidney cells (Vero cells) were purchased from ATCC (Cat. No.: CCL-136 and CCL-81, respectively). The above cells were cultured in a cell culture incubator at 37° C. and 5% CO2. The complete culture medium used for cell growth was DMEM high-glucose culture medium (purchased from Gibco, Cat. […] No.: 16000044) and penicillin-streptomycin (purchased from Gibco, Cat. No.: 2321152). The maintenance culture medium used for cell culture was DMEM high-glucose culture medium supplemented with 2% FBS and penicillin-streptomycin. H strain of EV-A71 was purchased from ATCC (Cat. No.: VR-1432). […] The microplate reader, model Spectra Max M5, was purchased from Molecular Devices. […] Finally, the luminescence value of each well was measured using the microplate reader. The inhibition rate of the test compounds at each dilution was calculated as follows: [formula] […] The half-cytotoxic concentrations (CC50) of the test compounds were calculated using the same method, and the select index (SI) was calculated based on EC50 and CC50: SI=CC50/EC50.

[3] = tested on: EV-A71; experiment: EV-A71 viral load in ICR suckling mice tissues (qRT-PCR); assay type: in vivo; details: 200 mg/kg intraperitoneally once per day, 4th day (FIG. 7)
[4] = tested on: EV-A71 RNA; experiment: inhibition of EV-A71 viral RNA replication (qRT-PCR) in RD cells; assay type: cell-based; details: 0.1 MOI, 30 hours (FIG. 3 B and D)
[5] = tested on: CV-B3 Nancy; experiment: CPE protection, CV-B3 Nancy strain; assay type: cell-based; details: for EC50: CV-B3 Nancy, Vero cells
[6] = tested on: CV-A6 TW-2007-00141; experiment: CPE protection, CV-A6 TW-2007-00141 strain; assay type: cell-based; details: CV-A6 TW-2007-00141, RD cells
[7] = tested on: EV-A71 VP1 protein; experiment: inhibition of EV-A71 VP1 protein synthesis (immunofluorescence, Western blot); assay type: cell-based; details: Vero cells IF, RD cells Western blot (FIG. 4)
Protocol: Vero cells were seeded in a 96-well black plate at a density of about 1.0×10^4 per well and cultured at 37° C. and 5% CO2 for 24 hours. Then, EV-A71 virus was diluted to the corresponding concentration with cell maintenance medium and added into the 96-well plate (MOI=1). At the same time, the test compounds EIDD-1931 and EIDD-2801, which had been diluted in advance with cell maintenance medium, were added at the final concentrations of 10 μM, 3 μM and 100 μM, 30 μM, respectively. Then the cells were cultured for 16 hours, the liquid was discarded, 100 μL of 4% formaldehyde was added to each well for fixation for 30 minutes, the fixative was discarded, PBS buffer was added, and the antibody was incubated and labeled for imaging.
RD cells were seeded in a 12-well plate at a density of about 1.0×10^5 per well and cultured at 37° C. and 5% CO2 for 24 hours. Then, EV-A71 virus was diluted to the corresponding concentration with cell maintenance medium and added to the 12-well plate so that the virus content in each well was 0.1 MOI. […] After the protein concentration was determined with BCA protein quantification kit, the corresponding volume of 5×SDS Loading Buffer was added and boiled at 100° C. for 10 minutes to fully denature the protein. […]

[8] = tested on: EV-A71; experiment: protection of 1-day-old ICR suckling mice with lethal EV-A71 infection; assay type: in vivo; details: for protective effect on ICR suckling mice inoculated with a lethal dose of EV-A71: 200, 66.6, 22.2, 7.41 mg/kg intraperitoneally once per day for 7 days
Protocol: 10 litters of 1-day-old ICR offspring female mice were randomly divided into 10 groups, namely, virus control group (2 groups), EIDD-1931 administration group (4 groups), and EIDD-2801 administration group (4 groups). The dosages of EIDD-1931 and EIDD-2801 were 200 mg/kg, 66.6 mg/kg, 22.2 mg/kg, and 7.41 mg/kg, respectively. Each mouse was challenged with 10^6 PFU intraperitoneally, and administrated the drug intraperitoneally 4 hours later. The mice of virus control group were administrated the drug solvent. And then, the drug was administered once per day for 7 consecutive days. The mice were weighed, and the survival and weight changes in the mice were recorded every day.
Log-Rank was used to calculate the statistical significance of the survival curve. p<0.05 indicated statistical significance.

| SMILES | EC50 [1] [µM] | CC50 [2] [µM] | viral loads in tissues or organs (brain, heart, small intestine, liver, hind limb muscle, lung) [3] | inhibition of replication of EV-A71 RNA [4] | EC50 [5] [µM] | EC50 [6] [µM] | inhibition of production of EV-A71 VP1 protein [7] | time within which the mice died ([8]; 7.41 mg/kg intraperitoneally) [days] | survival rate ([8]; 22.2 mg/kg intraperitoneally) [%] | protection from the lethal dose of EV-71 virus ([8]; 66.6 mg/kg intraperitoneally) | protection from the lethal dose of EV-71 virus ([8]; 200 mg/kg intraperitoneally) | protective effect on ICR suckling mice inoculated with a lethal dose of EV-A71 [8] | weight gain of surviving mice ([8]; 200, 66.6 and 22.2 mg/kg) | inhibitory activity against CV-A16 [1] | inhibitory activity against CV-B3 [5] | time within which the mice died ([8]; 22.2 mg/kg intraperitoneally) [days] | survival rate ([8]; 66.6 mg/kg intraperitoneally) [%] | survival rate ([8]; 200 mg/kg intraperitoneally) [%] |
| --- | --- | --- | --- | --- | --- | --- | --- | --- | --- | --- | --- | --- | --- | --- | --- | --- | --- | --- |
| O=c1nc(NO)ccn1[C@@H]1O[C@H](CO)[C@@H](O)[C@H]1O [EIDD-1931] | 4.14 ± 0.27 | 14.1 ± 0.43 | significantly reduced | dose-dependently inhibited | 3.65 ± 0.82 | 17.7 ± 0.38 | dose-dependently inhibit | ≤ 12 | 60 | completely protect | completely protect | dose-dependent protective effect | good weight gain |  |  |  |  |  |
| CC(C)C(=O)OC[C@H]1O[C@@H](n2cc/c(=N\O)[nH]c2=O)[C@H](O)[C@@H]1O [EIDD-2801] | 44.9 ± 4.23 | > 100 | significantly reduced | dose-dependently inhibited | 87.2 ± 10.8 | > 100 | dose-dependently inhibit | ≤ 13 |  |  |  | dose-dependent protective effect |  | low inhibitory activity | low inhibitory activity | ≤ 13 | 67 | 100 |

Reference: US20260158050A1, “USE OF EIDD-1931 OR DERIVATIVE THEREOF IN TREATMENT OF ENTEROVIRUS INFECTION” (ACADEMY OF MILITARY MEDICAL SCIENCES, priority 2022, published 2026)
